# Test results: ChEMBL document CHEMBL5375981, “Enhanced Tumor Targeting and Penetration of Proteolysis-Targeting Chimeras through iRGD Peptide Conjugation: A Strategy for Precise Protein Degradation in Breast Cancer” (J Med Chem, 2023)
# The source made the active and inactive calls. The rule behind the calls is not given here.
# Columns and labels:
# Homo sapiens = species on record: Homo sapiens; assay: Antitumor activity against patient-derived Breast cancer organoid assessed as increase in number of apoptotic cells by measuring increase in red fluorescence at 0.5 to 1 uM incubated for approximately 3 to 5 days by acridine orange/ethidium bromide double staining ssay; assay type: functional, cell-based; details: dose 0.5-1 µM, time 3-5 day
# [1] = Toxicity in BALB/C mouse xenografted with human MDA-MB-231 cells assessed as weight loss at 5 to 8 uM, iv administered for 21 days and measured every 3 days; assay type: organism-based; details: in vivo, 504 h, dose 5-8 µM, time 21 day
# [2] = Toxicity in BALB/C mouse xenografted with human MDA-MB-231 cells assessed as spleen damage at 5 to 8 uM, iv administered every other day for 21 days and measured 37 days post treatment by H and E staining based assay; assay type: organism-based; details: in vivo, 1392 h, dose 5-8 µM, time 58 day
# [3] = target: Bromodomain-containing protein 4 (Homo sapiens) (UniProt O60885); assay: Induction of BRD4 degradation in human MDA-MB-231 cells harboring high integrin alphaVbeta3 expression at 1 uM incubated for 12 hrs by immunofluorescence staining based confocal microscopic analysis; assay type: cell-based
# MDA-MB-231 [4] = assay: Antitumor activity against human MDA-MB-231 cells xenografted in BALB/C nude mouse assessed as induction of apoptosis in tumor cells at 5 to 8 uM, iv administered every other day and measured after 21 days by immunohistochemistry; assay type: functional, organism-based; details: dose 5-8 µM, time 21.0 day
# MDA-MB-231 [5] = assay: Antitumor activity against human MDA-MB-231 cells xenografted in BALB/C nude mouse assessed as tumor growth inhibition at 5 uM, iv administered every other day and measured after 21 days by vernier caliper method relative to control; assay type: functional; details: MDA-MB-231, 504 h, time 21 day, read-out: TGI
# [6] = Solubility in distilled water measured for 30 mins by ultraviolet spectrophotometry analysis; assay type: physicochemical
# [7] = target: Bromodomain-containing protein 4 (Homo sapiens) (UniProt O60885); assay: Induction of BRD4 degradation in human L02 cells lacking integrin alphaVbeta3 expression at 300 nM incubated for 12 hrs by immunofluorescence staining based confocal microscopic analysis; assay type: cell-based
# MDA-MB-231 [8] = assay: Antimigratory activity against human MDA-MB-231 cells harboring high integrin alphaVbeta3 expression assessed as inhibition of cell migration incubated for 48 hrs by crystal violet staining based transwell assay; assay type: functional; details: dose 200-300 nM
# [9] = Stability of compound in PBS containing 5% serum at 50 uM measured after 72 hrs by LC-MS analysis; assay type: physicochemical, cell-free; details: read-out: Stability
smiles,measurement,setting,value
Cc1ncsc1-c1ccc([C@H](C)NC(=O)[C@@H]2C[C@@H](OC(=O)OCCSSCCOC(=O)CCC(=O)NCCCC[C@@H]3NC(=O)[C@H](CC(=O)O)NC(=O)CNC(=O)[C@H](CCCNC(=N)N)NC(=O)[C@@H](N)CSSC[C@@H](C(=O)O)NC(=O)[C@H](CC(=O)O)NC(=O)[C@@H]4CCCN4C(=O)CNC3=O)CN2C(=O)[C@@H](NC(=O)COCCOCCOCCNC(=O)C[C@@H]2N=C(c3ccc(Cl)cc3)c3c(sc(C)c3C)-n3c(C)nnc32)C(C)(C)C)cc1,Activity,Homo sapiens,Active
same,Activity,[1],Non-Toxic
same,Activity,[2],Non-Toxic
same,Activity,[3],Active
same,Activity,MDA-MB-231 [4],Active
same,inhibition in vivo at 5 µM,MDA-MB-231 [5],62.3%
same,solubility at 0.5 h,[6],> 10 mM
same,Activity,[7],inactive
same,Activity,MDA-MB-231 [8],Dose-Dependent Effect
same,"remaining at 72 h, 50 µM",[9],89.9%
